Measurements taken from patent US20210346419A1, “COMPOSITIONS AND METHODS FOR DIAGNOSIS AND TREATMENT OF CONDITIONS RELATED TO THE QUALITY OF AGING AND LONGEVITY” (EPITRACKER, INC., priority 2019, published 2021).

Key:
4H human cell system = assay: BioMAP Diversity PLUS primary human cell phenotypic profiling, 4H system; type: cell-based; settings: 6.7 and/or 20 μM, 24 to 72 hours
From the text: (§1) It was hypothesized that, given the compounds' associations with lower risks of comorbidities of aging in long-lived dolphins, the compounds of the embodiments would have relevant activities in human cell systems mimicking conditions related to the quality of aging and longevity. To test this hypothesis, 12 primary human cell systems from the BioMAP Diversity PLUS® panel (Eurofins/DiscoverX, Fremont, Calif.) mimicking inflammation and fibrosis relevant to chronic inflammation, liver disease, respiratory disease, skin disease, wound healing, scarring, allergies, asthma, autoimmune disease, cancer, and cardiovascular disease, were exposed to pure, synthetic forms of the selected compounds at one or two concentrations (6.7 and/or 20 μM). Quantitative measurements of 148 biomarker activities across this broad panel, along with comparative analysis of biological activities from known bioactive agents, were used to predict and compare the efficacy and function of the targeted compounds across these systems compared to non-treated control systems. Activated BioMAP systems were incubated with the targeted compounds for 24 to 72 hours. Biomarker activities were considered significant when biomarker values were outside of the 95th percentile significance envelope and had at least one concentration with an effect size >20% (log 10 ratio) >0.1. FIG. 2 describes the different cell systems.
(§2) The summary is of relevant diseases and tissues treated with selected compounds at 6.7 to 20 μM, based on primary human cell phenotypic profiling.

SAg human cell system = assay: BioMAP Diversity PLUS primary human cell phenotypic profiling, SAg system; type: cell-based; settings: 6.7 and/or 20 μM, 24 to 72 hours; for Proliferation, Log10 ratio of treated vs. non-treated systems: T cell proliferation
From the text: as §1, §2

BT human cell system = assay: BioMAP Diversity PLUS primary human cell phenotypic profiling, BT system; type: cell-based; settings: 6.7 and/or 20 μM, 24 to 72 hours
From the text: as §1, §2

MyoF human cell system = assay: BioMAP Diversity PLUS primary human cell phenotypic profiling, MyoF system; type: cell-based; settings: 6.7 and/or 20 μM, 24 to 72 hours
From the text: as §1, §2

BE3C human cell system = assay: BioMAP Diversity PLUS primary human cell phenotypic profiling, BE3C system; type: cell-based; settings: 6.7 and/or 20 μM, 24 to 72 hours
From the text: as §1, §2

/Mphg human cell system = assay: BioMAP Diversity PLUS primary human cell phenotypic profiling, /Mphg system; type: cell-based; settings: 6.7 and/or 20 μM, 24 to 72 hours
From the text: as §1, §2

BF4T human cell system = assay: BioMAP Diversity PLUS primary human cell phenotypic profiling, BF4T system; type: cell-based; settings: 6.7 and/or 20 μM, 24 to 72 hours
From the text: as §1, with “cell systems. […]” for “cell systems.”

KF3CT human cell system = assay: BioMAP Diversity PLUS primary human cell phenotypic profiling, KF3CT system; type: cell-based; settings: 6.7 and/or 20 μM, 24 to 72 hours
From the text: as §1, §2

3C human cell system = assay: BioMAP Diversity PLUS primary human cell phenotypic profiling, 3C system; type: cell-based; settings: 6.7 and/or 20 μM, 24 to 72 hours
From the text: as §1, with “cell systems. […]” for “cell systems.”

LPS human cell system = assay: BioMAP Diversity PLUS primary human cell phenotypic profiling, LPS system; type: cell-based; settings: 6.7 and/or 20 μM, 24 to 72 hours
From the text: as §1, §2

CASM3C human cell system = assay: BioMAP Diversity PLUS primary human cell phenotypic profiling, CASM3C system; type: cell-based; settings: coronary artery smooth muscle cell proliferation, 6.7 and/or 20 μM, 24 to 72 hours
From the text: as §1, with “cell systems. […]” for “cell systems.”

[1] = system: HDF3CGF human cell system; assay: BioMAP Diversity PLUS primary human cell phenotypic profiling, HDF3CGF system; type: cell-based; settings: 6.7 and/or 20 μM, 24 to 72 hours
From the text: as §1, §2

[2] = room temperature; cited from earlier work

O[C@H]1[C@H](O)[C@@H](O)[C@H](O)[C@@H](O)[C@H]1O [myo-inositol]
MCP-1, Log10 ratio of treated vs. non-treated systems (4H human cell system): −0.13 | Proliferation, Log10 ratio of treated vs. non-treated systems (SAg human cell system): −0.20 | IL-17A (sIL-17A), Log10 ratio of treated vs. non-treated systems (BT human cell system): −0.12 | TNF-α (sTNF-α), Log10 ratio of treated vs. non-treated systems (BT human cell system): −0.21 | sIL-2, Log10 ratio of treated vs. non-treated systems (BT human cell system): −0.16 | sIL-17F, Log10 ratio of treated vs. non-treated systems (BT human cell system): −0.15 | sIgG, Log10 ratio of treated vs. non-treated systems (BT human cell system): −0.62 | Collagen III, Log10 ratio of treated vs. non-treated systems (MyoF human cell system): −0.11 | Collagen IV, Log10 ratio of treated vs. non-treated systems (MyoF human cell system): 0.24 | VCAM-1, Log10 ratio of treated vs. non-treated systems (MyoF human cell system): −0.11 | CXCL8, Log10 ratio of treated vs. non-treated systems (BE3C human cell system): −0.26 | CXCL10, Log10 ratio of treated vs. non-treated systems (BE3C human cell system): −0.58 | CXCL11, Log10 ratio of treated vs. non-treated systems (BE3C human cell system): −0.28 | EGFR, Log10 ratio of treated vs. non-treated systems (BE3C human cell system): −0.11 | HLA-DR, Log10 ratio of treated vs. non-treated systems (BE3C human cell system): −0.10 | ICAM-1, Log10 ratio of treated vs. non-treated systems (BE3C human cell system): −0.11 | MMP-9, Log10 ratio of treated vs. non-treated systems (BE3C human cell system): −0.25 | PAI-1, Log10 ratio of treated vs. non-treated systems (BE3C human cell system): −0.18 | IL-1α, Log10 ratio of treated vs. non-treated systems (/Mphg human cell system): −0.10 | Eotaxin-3, Log10 ratio of treated vs. non-treated systems (BF4T human cell system): −0.19 | MCP-1, Log10 ratio of treated vs. non-treated systems (BF4T human cell system): −0.21 | CXCL10, Log10 ratio of treated vs. non-treated systems (KF3CT human cell system): −0.26 | IL-1α, Log10 ratio of treated vs. non-treated systems (KF3CT human cell system): −0.11 | MMP-9, Log10 ratio of treated vs. non-treated systems (KF3CT human cell system): −0.18 | PAI-1, Log10 ratio of treated vs. non-treated systems (KF3CT human cell system): −0.27

N[C@@H](CCC(=O)N[C@@H](Cc1c[nH]cn1)C(=O)O)C(=O)O [gamma-glutamylhistidine]
TNF-α (sTNF-α), Log10 ratio of treated vs. non-treated systems (BT human cell system): −0.18 | MMP-1, Log10 ratio of treated vs. non-treated systems (BE3C human cell system): −0.10 | Tissue factor, Log10 ratio of treated vs. non-treated systems (3C human cell system): −0.12 | CD40, Log10 ratio of treated vs. non-treated systems (LPS human cell system): −0.11 | E-selectin, Log10 ratio of treated vs. non-treated systems (LPS human cell system): −0.11 | Proliferation, Log10 ratio of treated vs. non-treated systems (CASM3C human cell system): 0.11 | CXCL8, Log10 ratio of treated vs. non-treated systems (/Mphg human cell system): −0.15

C[C@H](CCC(=O)O)[C@H]1CC[C@H]2[C@@H]3[C@H](O)C[C@@H]4C[C@H](O)CC[C@]4(C)[C@H]3CC[C@]12C [chenodeoxycholate]
CXCL8, Log10 ratio of treated vs. non-treated systems (SAg human cell system): −0.10

COc1cc(C(O)C(=O)O)ccc1O (stereo not shown) [vanillylmandelate (VMA), vanillylmandelate]
CXCL8, Log10 ratio of treated vs. non-treated systems (/Mphg human cell system): −0.18

Nc1ncnc2c1ncn2[C@@H]1O[C@H](CSCC[C@H](N)C(=O)O)[C@@H](O)[C@H]1O [S-adenosylhomocysteine (SAH), S-adenosylhomocysteine]
Proliferation, Log10 ratio of treated vs. non-treated systems (SAg human cell system): −0.21 | sIgG, Log10 ratio of treated vs. non-treated systems (BT human cell system): −0.29 | CXCL10, Log10 ratio of treated vs. non-treated systems [1]: −0.19 | CXCL11, Log10 ratio of treated vs. non-treated systems [1]: −0.25 | Collagen III, Log10 ratio of treated vs. non-treated systems [1]: −0.21 | M-CSF, Log10 ratio of treated vs. non-treated systems [1]: −0.19 | MCP-1, Log10 ratio of treated vs. non-treated systems [1]: −0.14 | PAI-1, Log10 ratio of treated vs. non-treated systems [1]: −0.23 | Proliferation, Log10 ratio of treated vs. non-treated systems [1]: −1.10 | TIMP-1, Log10 ratio of treated vs. non-treated systems [1]: −0.14 | VCAM-1 (VCAM1), Log10 ratio of treated vs. non-treated systems [1]: −0.17 | Alpha-SM actin, Log10 ratio of treated vs. non-treated systems (MyoF human cell system): −0.18 | Collagen I, Log10 ratio of treated vs. non-treated systems (MyoF human cell system): −0.15 | Collagen III, Log10 ratio of treated vs. non-treated systems (MyoF human cell system): −0.27 | Collagen IV, Log10 ratio of treated vs. non-treated systems (MyoF human cell system): 0.31 | VCAM-1, Log10 ratio of treated vs. non-treated systems (MyoF human cell system): −0.12 | CXCL8, Log10 ratio of treated vs. non-treated systems (BE3C human cell system): −0.13 | CXCL11, Log10 ratio of treated vs. non-treated systems (BE3C human cell system): −0.13 | HLA-DR, Log10 ratio of treated vs. non-treated systems (BE3C human cell system): −0.13 | MMP-9, Log10 ratio of treated vs. non-treated systems (BE3C human cell system): −0.24 | Proliferation, Log10 ratio of treated vs. non-treated systems (3C human cell system; endothelial cell proliferation): −0.27 | MMP-9, Log10 ratio of treated vs. non-treated systems (KF3CT human cell system): −0.10 | PAI-1, Log10 ratio of treated vs. non-treated systems (KF3CT human cell system): −0.28

O=C(O)CNC(=O)c1ccccc1 [hippurate]
P-selectin, Log10 ratio of treated vs. non-treated systems (4H human cell system): −0.10 | MMP-1, Log10 ratio of treated vs. non-treated systems (BE3C human cell system): −0.11 | CD40, Log10 ratio of treated vs. non-treated systems (LPS human cell system): −0.11 | Proliferation, Log10 ratio of treated vs. non-treated systems (CASM3C human cell system): −0.10 | CXCL8, Log10 ratio of treated vs. non-treated systems (/Mphg human cell system): −0.12

CC(=O)N[C@H](C(=O)O)[C@@H](C)O [N-acetylthreonine]
VEGFR2, Log10 ratio of treated vs. non-treated systems (4H human cell system): −0.16 | sIgG, Log10 ratio of treated vs. non-treated systems (BT human cell system): −0.41

N=C(N)NCCCC(=O)O [4-guanidinobutanoate]
MCP-1, Log10 ratio of treated vs. non-treated systems (4H human cell system): −0.12 | CD38, Log10 ratio of treated vs. non-treated systems (SAg human cell system): −0.10 | Proliferation, Log10 ratio of treated vs. non-treated systems (SAg human cell system): −0.13 | IL-17A (sIL-17A), Log10 ratio of treated vs. non-treated systems (BT human cell system): −0.17 | TNF-α (sTNF-α), Log10 ratio of treated vs. non-treated systems (BT human cell system): −0.10 | sIgG, Log10 ratio of treated vs. non-treated systems (BT human cell system): −0.49 | CXCL10, Log10 ratio of treated vs. non-treated systems [1]: −0.11 | CXCL11, Log10 ratio of treated vs. non-treated systems [1]: −0.19 | Collagen III, Log10 ratio of treated vs. non-treated systems [1]: −0.23 | Proliferation, Log10 ratio of treated vs. non-treated systems [1]: −1.09 | TIMP-1, Log10 ratio of treated vs. non-treated systems [1]: −0.14 | VCAM-1 (VCAM1), Log10 ratio of treated vs. non-treated systems [1]: −0.19 | Collagen IV, Log10 ratio of treated vs. non-treated systems (MyoF human cell system): 0.13

O=c1[nH]c(=O)c2ncn([C@@H]3O[C@H](CO)[C@@H](O)[C@H]3O)c2[nH]1 [xanthosine]
CD40, Log10 ratio of treated vs. non-treated systems (LPS human cell system): −0.12 | Tissue factor, Log10 ratio of treated vs. non-treated systems (LPS human cell system): −0.13 | CXCL8, Log10 ratio of treated vs. non-treated systems (/Mphg human cell system): −0.13 | Physical state and stability [2]: solid that is stable at room temperature

C[C@H](CCC(=O)O)[C@H]1CC[C@H]2[C@@H]3[C@H](O)C[C@@H]4C[C@H](O)CC[C@]4(C)[C@H]3C[C@H](O)[C@]12C [cholate]
MMP-1, Log10 ratio of treated vs. non-treated systems (BE3C human cell system): −0.10
